Test results: patent US5874438A, “2,2'-bridged bis-2,4-diaminoquinazolines” (Bayer Aktiengesellschaft, priority 1996, dated 1999)

Legend:
[1] = target: apamin-sensitive potassium channels; assay: Binding of ^125 I-apamin to bovine cerebral membrane; conditions: ^125 I-apamin 30 pM, calf hippocampus membranes, 60 min on ice
Protocol: (§1) The compounds according to the invention are ligands for apamin-sensitive potassium channels. This can be shown by studying the affinity for apamine binding sites, e.g. in bovine cerebral membranes.
1) Binding of ^125 I-apamin to bovine cerebral membrane
Calf brains were obtained from the local abattoir. The hippocampus was prepared on ice and a membrane suspension was made up by homogenization twice in buffer (100 mM Tris-HCl, KCl 5 mM, pH 7.4) and centrifugation at 43,000×g. In a total volume of 500 μl, the incubation mixture contained 200 μg of membrane protein, 30 pM ^125 I-apamine and test substances in the concentration range 1×10^-9 to […]. The non-specific binding of ^125 I-apamin was determined in the presence of 1×10^-7 M unlabelled apamin.
After preincubation for 30 min at room temperature (test substances and membrane homogenate), the samples were placed on ice for 10 min before the radioligand was added. The main incubation time was 60 min on ice. When the reaction time had elapsed, an excess of ice-cooled incubation buffer was added to each sample and the mixture was filtered with suction through cellulose acetate/nitrate membrane filters. The amount of bound ^125 I-apamin was measured with a gamma counter.

[2] = test system: potassium channel (PC12 cells); assay: Non-radioactive Rb^+ efflux assay for the identification of potassium channel modulators; format: cell-based; conditions: 50 mM KCl stimulation, 10 min
Protocol: as §1
2) Non-radioactive Rb^+ efflux assay for the identification of potassium channel modulators
The potassium in PC12 cells is exchanged with rubidium, which is not present in the cells. This exchange is performed by incubating the cells over a period of 4 h in a physiological buffer containing 5.4 mM RbCl without KCl. This rubidium subsequently serves as a tracer for potassium.
The cells laden with Rb^+ in this way are washed three times and then stimulated by depolarization with 50 mM KCl to open potassium channels (10 min), causing Rb^+ to flow out of the cells into the supernatant according to the concentration gradient. The rubidium contents in the cell supernatant and in the residual cells after they have been lysed with 1% Triton X-100 are then determined by means of atomic absorption spectroscopy. The relative proportion of rubidium in the cell supernatant (=Rb^+ efflux) is used as a measure of the potassium channel activity.
The effect of substances on the channel activity is measured by co-incubating the test substance over the ten-minute stimulation period and determining its effect on the Rb^+ efflux in the manner described above.

| SMILES | Ki [1] [nM] | % inhibition of the Rb efflux at a test concentration of 10 μM [2] [%] |
| --- | --- | --- |
| CCN(CC)c1nc(N2CCCN(c3nc(N(CC)CC)c4ccccc4n3)CCC2)nc2ccccc12 [Example 1, 1,5-Bis-(4-diethylaminoquinazolin-2-yl)-[1,5]-diazoxane] | 340 | – |
| CCN(CC)c1nc(NCC23C=CC(CC2)C2CN(c4nc(N(CC)CC)c5ccccc5n4)CC23)nc2ccccc12.Cl.Cl (stereo not shown) [Example 2, N^2-[4-(4-Diethylamino-quinazolin-2-yl)-4-aza-tricyclo[5.2.2.0^2,6]undec-8-en-1-yl-methyl]-N^4,N^4-diethyl-quinazoline-2,4-diamine dihydrochloride] | – | 72 |
| CCN(CC)c1nc(N2CCCN(c3nc(N(CC)CC)c4ccccc4n3)CC2)nc2ccccc12 [Example 3, 1,4-Bis-(4-diethylamino-2-quinazolyl)-1,4-diazacycloheptane] | – | 63 |
| CCN(CC)c1nc(N2CCCN(c3nc(N(CC)CC)c4cc(Cl)ccc4n3)CC2)nc2ccc(Cl)cc12 [Example 4, 1,4-Bis-(6-chloro-4-diethylamino-2-quinazolyl)-1,4-diazacycloheptane] | 140 | – |
